{"source": "patent US20250082598A1", "about": "“Melafenoxate, 2-(1-adamantylamino)ethyl 2-(4-chlorophenoxy)acetate and derivatives thereof for treating circadian rhythm sleep disorders with neurodegenerative diseases such as Alzheimer's disease” (NLS Pharmaceutics AG, priority 2021, published 2025)", "key": {"NK2 (h)": {"target": "T1, NK2 (h) (Homo sapiens, UniProt P21452)", "T1 construct": "CEREP (Eurofins, France)", "T1 sequence (P21452 1-398)": "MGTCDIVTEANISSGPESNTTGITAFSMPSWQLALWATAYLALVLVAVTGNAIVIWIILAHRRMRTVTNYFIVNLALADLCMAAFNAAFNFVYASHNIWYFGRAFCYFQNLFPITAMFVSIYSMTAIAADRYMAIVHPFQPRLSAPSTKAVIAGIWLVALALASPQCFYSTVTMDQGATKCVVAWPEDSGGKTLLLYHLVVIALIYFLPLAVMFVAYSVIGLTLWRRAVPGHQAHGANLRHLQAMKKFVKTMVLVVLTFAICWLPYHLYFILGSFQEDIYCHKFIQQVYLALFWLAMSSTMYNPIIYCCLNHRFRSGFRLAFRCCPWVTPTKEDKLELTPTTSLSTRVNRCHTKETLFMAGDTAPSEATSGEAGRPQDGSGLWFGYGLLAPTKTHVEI", "assay": "Radioligand binding, NK2 (h)", "conditions": "10^−5 M; agonist radioligand", "method": "Melafenoxate was tested at 10^−5 M, calculated as a % inhibition of control specific binding of a radioactively labeled ligand specific for each target.\nThis binding profile panel was broadly defined with roughly an equal number of selective, central and peripheral therapeutically relevant targets, including native animal tissues, radioligands and specific enzymes involved in cell cycle regulation in accordance with Eurofins Standard Operating Procedure.\nFor radioligand binding experiments, the half maximal inhibitory concentration (IC50) and the half maximal effective concentration (EC50) values were determined (via computer software) by nonlinear regression analysis of the competition curves using Hill equation curve fitting. The inhibition constants (Ki) were calculated using the Cheng-Prusoff equation (Ki=IC50/(1+(L/KD)), where L is the concentration of radioligand in the assay, and KD is the affinity of the radioligand for the receptor.^49\nThe results are expressed as a % control specific binding ([measured specific binding/control specific binding]×100) and as a % inhibition of control specific binding (100−[(measured specific binding/control specific binding)×100]) obtained in the presence of the test compounds. […]"}, "C57BL/6J mice": {"test_system": "C57BL/6J mice", "assay": "Scopolamine-induced amnesia in the novel object recognition (NOR) test", "format": "in vivo", "method": "The scopolamine-induced amnesia in the novel object recognition (NOR) test in mice is a recognized in vivo model of Alzheimer Disease (AD).\nThe aim of this study is to examine whether Melafenoxate (NLS-8) improves amnesia induced by scopolamine in the NOR test.\nExperiments were carried out on C57BL/6J mice.\nIn a first step of the experiment, NLS-8 was tested at 25, 50 and 100 mg/kg.\nAnimals were divided into 6 groups (N=4-10/group).\nAt T=0 min, they received the following treatments by intraperitoneal (i.p.) route: • Control group: vehicle. • Scopolamine group: scopolamine (1.2 mg/kg). • NLS-8 25 group: NLS-8 (25 mg/kg)+scopolamine (1.2 mg/kg). • NLS-8 50 group: NLS-8 (50 mg/kg)+scopolamine (1.2 mg/kg). • NLS-8 100 group: NLS-8 (100 mg/kg)+scopolamine (1.2 mg/kg). • NLS-8 150 group: NLS-8 (150 mg/kg)+scopolamine (1.2 mg/kg).\nAt T=30 min following treatment, animals were subjected to a sample trial. They were placed for a 12-min session in a circular experimental box in which two identical objects were presented (50% of animals: two brown cylindrical vials; 50% of animals: two black rectangular columns). At t=120 min following treatments, mice were subjected to a choice trial. They were placed again for a 12-min session in the same experimental box in which two different objects (a vial and a column) were presented: one of the objects (termed as familiar object) presented in the sample trial and a novel object. Exploration of the objects was recorded by an experimenter blind to treatment and unaware of which object was the novel one and which object was the familiar one.\nDI(discrimination index)=100 ×(exploration time of the novel object−exploration time of the familiar object)/(exploration time of the novel object+exploration time of the familiar object). • Index of exploration: N+F=exploration time of the novel object+exploration time of the familiar object.\n• Within group comparisons: DI vs. 0 (paired Student's t test). • Between group comparisons vs. the Control group and vs. the Scopo group: unpaired Student's t test."}, "[1]": {"conditions": "NLS-8 25-150 mg/kg + scopolamine 1.2 mg/kg i.p."}}, "note": "“Also recorded” adds a separate entry of the source."}
{"smiles": "O=C(COc1ccc(Cl)cc1)OCCNC12CC3CC(CC(C3)C1)C2", "note": "[Melafenoxate, 2-(1-adamantylamino)ethyl 2-(4-chlorophenoxy)acetate]", "values": [{"measurement": "inhibition at 10 µM", "setting": "NK2 (h)", "value": 33.5, "unit": "%"}, {"measurement": "discrimination index vs. 0 (within group)", "setting": "C57BL/6J mice; NLS-8 25 mg/kg + scopolamine 1.2 mg/kg i.p.", "value": "Non-significantly higher than 0"}, {"measurement": "discrimination index vs. 0 (within group)", "setting": "C57BL/6J mice; NLS-8 50 mg/kg + scopolamine 1.2 mg/kg i.p.", "value": "Significantly higher than 0"}, {"measurement": "exploration time of objects (N+F) during the choice trial", "setting": "C57BL/6J mice; NLS-8 50 mg/kg + scopolamine 1.2 mg/kg i.p., vs. Control and Scopo groups", "value": "higher than that of Control and Scopo groups"}, {"measurement": "discrimination index vs. 0 (within group)", "setting": "C57BL/6J mice; NLS-8 100 mg/kg + scopolamine 1.2 mg/kg i.p.", "value": "Non-significantly higher than 0"}, {"measurement": "discrimination index vs. 0 (within group)", "setting": "C57BL/6J mice; NLS-8 150 mg/kg + scopolamine 1.2 mg/kg i.p.", "value": "Non-significantly higher than 0"}, {"measurement": "effect on amnesia induced by scopolamine (conclusion)", "setting": "C57BL/6J mice; NLS-8 25-150 mg/kg", "value": "can improve amnesia induced by scopolamine"}, {"measurement": "discrimination index, NLS-8 groups vs. Control group", "setting": "C57BL/6J mice; [1]", "value": "Not significantly different"}, {"measurement": "discrimination index, NLS-8 groups vs. Scopo group", "setting": "C57BL/6J mice; [1]", "value": "Not significantly different; also recorded: not significant"}, {"measurement": "exploration time of objects (N+F) during the choice trial", "setting": "C57BL/6J mice; all other comparisons (other than NLS-8 50 group) vs. Control and vs. Scopo group", "value": "not significant"}]}
